Measured values taken from patent EP1632479A2, “Piperazine derivatives useful as ccr5 antagonists” (SCHERING CORPORATION, priority 1999, dated 2000).

Molecular target: T1, human CCR5 chemokine receptor (Homo sapiens, UniProt P51681)
T1 construct: expressed in transfected cells; host or cells: NIH 3T3 cells (murine), membranes
Assay: CCR5 membrane binding assay (inhibition of RANTES binding)
Details: 125I-RANTES; membranes from NIH 3T3 cells expressing the human CCR5 chemokine receptor; one hour incubation
Procedure: CCR5 Membrane Binding Assay:
A high throughput screen utilizing a CCR5 membrane binding assay identifies inhibitors of RANTES binding. This assay utilizes membranes prepared from NIH 3T3 cells expressing the human CCR5 chemokine receptor which have the ability to bind to RANTES, a natural ligand for the receptor. […] Compounds are serially diluted over a wide range of 0.001 ug/ml to 1 ug/ml and tested in triplicates. Reaction cocktails are harvested through glass fiber filters, and washed thoroughly.

T1 sequence (P51681 whole entry): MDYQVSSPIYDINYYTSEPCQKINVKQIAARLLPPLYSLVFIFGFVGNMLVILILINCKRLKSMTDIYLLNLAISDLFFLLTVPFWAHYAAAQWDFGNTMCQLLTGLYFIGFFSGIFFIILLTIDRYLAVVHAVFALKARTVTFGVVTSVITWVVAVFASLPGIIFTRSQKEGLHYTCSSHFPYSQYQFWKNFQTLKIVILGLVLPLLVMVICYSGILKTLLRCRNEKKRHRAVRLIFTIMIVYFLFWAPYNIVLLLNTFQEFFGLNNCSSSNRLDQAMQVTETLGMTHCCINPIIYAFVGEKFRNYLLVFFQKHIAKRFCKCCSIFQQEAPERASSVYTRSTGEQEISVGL

| Ki [nM] | Structure (SMILES) |
| --- | --- |
| 10.5 | Cc1cccc(C)c1C(=O)N1CCC(N2CCN(C(C)c3ccc(I)cc3)C(C)C2)CC1 (centres unmarked) [Example 11] |
| 60 | Cc1cccc(C)c1C(=O)N1CCC(N2CCN(C(C)c3ccc(-c4ccccc4)cc3)C(C)C2)CC1 (centres unmarked) [Example 16] |
